The source made the active and inactive calls. The calls are words filed in the database; no cut-off is given here.
Legend:
Mus musculus [1] = assay: Antiobesity activity in Sabra mouse assessed as reduction in body weight at 10 mg/kg, ip administered on day 6 to 10 measured on day 16 relative to control; assay type: functional; set-up: scale not given: the % may be the effect or the level left; conditions: route intraperitoneal
Mus musculus [2] = assay: Antiobesity activity in Sabra mouse assessed as change in body weight at 1 mg/kg, ip administered on day 8, 9, 10, 11, 14, 18, 24 and 32 measured on day 25 relative to control; assay type: functional; conditions: route intraperitoneal
Mus musculus [3] = assay: Antiobesity activity in C57BL/6 mouse assessed as change in glucose level in blood at 5 mg/kg, ip administered on day 1, 4, 5, 7, 17, 15, 19 measured on day 11 relative to control; assay type: functional; conditions: route intraperitoneal
Hypothalamus [4] = assay: Decrease in 2-AG level in Sabra mouse hypothalamus at 8 mg/kg, ip for 39 days (reference value: 100 +/- 7 %); assay type: functional; set-up: scale not given: the % may be the effect or the level left; conditions: route intraperitoneal
Mus musculus [5] = assay: Antiobesity activity in Sabra mouse assessed as change in body weight at 1 mg/kg, ip administered on day 8, 12 and 43 measured on day 43 relative to control; assay type: functional; conditions: route intraperitoneal
Mus musculus [6] = assay: Enhancement of cognitive function in Sabra mouse at 1 mg/kg, ip administered on day 6 to 10 by eight-arm maze test; assay type: functional, organism-based; set-up: dose 1 mg/kg
Hypothalamus [7] = assay: Effect on CAMKK2 gene expression in Sabra mouse hypothalamus assessed as change in mRNA level at 1 mg/kg, ip administered on day 8, 9, 10, 11, 14, 18, 24 and 32 by RT-PCR analysis relative to GAPDH; assay type: functional; conditions: route intraperitoneal
Mus musculus [8] = assay: Enhancement of cognitive function in Sabra mouse at 1 mg/kg, ip administered on day 8, 12 and 43 by eight-arm maze test; assay type: functional, organism-based; set-up: dose 1 mg/kg
Mus musculus [9] = assay: Antiobesity activity in Sabra mouse assessed as change in body weight at 1 mg/kg, ip administered on day 8, 12 and 43 measured on day 8 relative to control; assay type: functional; conditions: route intraperitoneal
Hypothalamus [10] = assay: Effect on 5HT1A gene expression in Sabra mouse hypothalamus assessed as change in mRNA level at 1 mg/kg, ip administered on day 8, 9, 10, 11, 14, 18, 24 and 32 by RT-PCR analysis relative to GAPDH; assay type: functional; conditions: route intraperitoneal
Mus musculus [11] = assay: Enhancement of motor activity in Sabra mouse at 10 mg/kg, ip administered on day 6 to 10 by open field test relative to control; assay type: functional; conditions: route intraperitoneal
Mus musculus [12] = assay: Toxicity in Sabra mouse assessed as morphological changes in glial cells at 1 mg/kg, ip administered on day 8, 9, 10, 11, 14, 18, 24 and 32 by hematoxylin and eosin staining-based histopathological analysis; assay type: organism-based; set-up: dose 1 mg/kg, route intraperitoneal; conditions: in vivo
Mus musculus [13] = assay: Antiobesity activity in Sabra mouse assessed as reduction in body weight at 1 mg/kg, ip administered on day 0, 10, 11, 12, 24, 29 measured on day 29 relative to control; assay type: functional; set-up: scale not given: the % may be the effect or the level left; conditions: route intraperitoneal
Mus musculus [14] = assay: Antiobesity activity in high fat diet fed C57BL/6 mouse assessed as reduction in body weight at 1 mg/kg, ip administered on day 3, 6, 8, 9, 10 measured on day 9 relative to control; assay type: functional; set-up: scale not given: the % may be the effect or the level left; conditions: route intraperitoneal
Mus musculus [15] = assay: Antiobesity activity in Sabra mouse assessed as reduction in body weight at 1 mg/kg, ip administered on day 6 to 10 measured on day 16 relative to control; assay type: functional; set-up: scale not given: the % may be the effect or the level left; conditions: route intraperitoneal
Mus musculus [16] = assay: Antiobesity activity in Sabra mouse assessed as change in body weight at 1 mg/kg, ip administered on day 8, 12 and 43 measured on day 54 relative to control; assay type: functional; conditions: route intraperitoneal
[17] = target: Transient receptor potential cation channel subfamily V member 1 (Rattus norvegicus) (UniProt O35433); assay: Displacement of [3H]resiniferatoxin from TRPV1 receptor in Wistar rat spinal cord at 10 uM relative to control
Mus musculus [18] = assay: Enhancement of cognitive function in Sabra mouse at 1 mg/kg, ip measured on day 8 to 12 by eight-arm maze test; assay type: functional, organism-based; set-up: dose 1 mg/kg
Mus musculus [19] = assay: Antiobesity activity in Sabra mouse assessed as change in food consumption at 1 mg/kg, ip administered on day 8, 9, 10, 11, 14, 18, 24 and 32 measured after 2 weeks relative to control; assay type: functional; conditions: route intraperitoneal
Mus musculus [20] = assay: Antiobesity activity in Sabra mouse assessed as reduction in body weight at 10 mg/kg, administered for 6 to 51 days via oral gavage measured on day 52 relative to control; assay type: functional, organism-based; set-up: dose 10 mg/kg
Mus musculus [21] = assay: Antiobesity activity in Sabra mouse assessed as change in body weight at 1 mg/kg, ip administered on day 8, 12 and 43 measured on day 12 relative to control; assay type: functional; conditions: route intraperitoneal
Mus musculus [22] = assay: Antiobesity activity in C57BL/6 mouse assessed as change in glucose level in blood at 5 mg/kg, ip administered on day 1, 4, 5, 7, 17, 15, 19 measured on day 3 relative to control; assay type: functional; conditions: route intraperitoneal
Mus musculus [23] = assay: Antiobesity activity in Sabra mouse assessed as change in body weight at 1 mg/kg, ip administered on day 8, 9, 10, 11, 14, 18, 24 and 32 measured on day 39 relative to control; assay type: functional; conditions: route intraperitoneal
Mus musculus [24] = assay: Antiobesity activity in Sabra mouse assessed as reduction in body weight at 1 mg/kg, ip administered on day 0, 10, 11, 12, 24, 29 measured on day 39 relative to control; assay type: functional; set-up: scale not given: the % may be the effect or the level left; conditions: route intraperitoneal
Mus musculus [25] = assay: Antiobesity activity in C57BL/6 mouse assessed as change in AST level at 5 mg/kg, ip measured on day 36 (reference value: 146.7 IU/L); assay type: functional; conditions: route intraperitoneal
Mus musculus [26] = assay: Antiobesity activity in Sabra mouse assessed as reduction in body weight at 1 mg/kg, ip administered on day 0, 10, 11, 12, 24, 29 measured on day 22 relative to control; assay type: functional; set-up: scale not given: the % may be the effect or the level left; conditions: route intraperitoneal
Mus musculus [27] = assay: Antiobesity activity in high fat diet fed C57BL/6 mouse assessed as reduction food consumption at 1 mg/kg, ip administered on day 3, 6, 8, 9, 10 measured after week 1 relative to control; assay type: functional; set-up: scale not given: the % may be the effect or the level left; conditions: route intraperitoneal
Mus musculus [28] = assay: Antiobesity activity in C57BL/6 mouse assessed as weight loss at 5 mg/kg, ip administered on day 1, 4, 5, 7, 17, 15, 19 measured on day 11 relative to control; assay type: functional; conditions: route intraperitoneal
Mus musculus [29] = assay: Antiobesity activity in C57BL/6 mouse assessed as change in glucose level in blood at 5 mg/kg, ip administered on day 1, 4, 5, 7, 17, 15, 19 measured on day 19 relative to control; assay type: functional; conditions: route intraperitoneal
Mus musculus [30] = assay: Antiobesity activity in Sabra mouse assessed as reduction in body weight at 1 mg/kg, ip administered on day 0, 10, 11, 12, 24, 29 measured on day 36 relative to control; assay type: functional; set-up: scale not given: the % may be the effect or the level left; conditions: route intraperitoneal
Mus musculus [31] = assay: Antiobesity activity in Sabra mouse assessed as change in body weight at 1 mg/kg, ip administered on day 8, 12 and 43 measured on day 15 relative to control; assay type: functional; conditions: route intraperitoneal
[32] = target: Cannabinoid receptor 2 (Homo sapiens) (UniProt P34972); assay: Displacement of [3H]WIN-55,212-2 from human recombinant CB2 receptor expressed in CHO-K1 cells at 10 uM relative to control; assay type: cell-based
Mus musculus [33] = assay: Hepatotoxicity in Sabra mouse assessed as inflammatory changes at 1 mg/kg, ip administered on day 8, 9, 10, 11, 14, 18, 24 and 32 by hematoxylin and eosin staining-based histopathological analysis; assay type: toxicity, organism-based; set-up: dose 1 mg/kg, route intraperitoneal; conditions: in vivo

Transient receptor potential cation channel subfamily V member 1 (Rattus norvegicus), sequence (O35433 whole entry): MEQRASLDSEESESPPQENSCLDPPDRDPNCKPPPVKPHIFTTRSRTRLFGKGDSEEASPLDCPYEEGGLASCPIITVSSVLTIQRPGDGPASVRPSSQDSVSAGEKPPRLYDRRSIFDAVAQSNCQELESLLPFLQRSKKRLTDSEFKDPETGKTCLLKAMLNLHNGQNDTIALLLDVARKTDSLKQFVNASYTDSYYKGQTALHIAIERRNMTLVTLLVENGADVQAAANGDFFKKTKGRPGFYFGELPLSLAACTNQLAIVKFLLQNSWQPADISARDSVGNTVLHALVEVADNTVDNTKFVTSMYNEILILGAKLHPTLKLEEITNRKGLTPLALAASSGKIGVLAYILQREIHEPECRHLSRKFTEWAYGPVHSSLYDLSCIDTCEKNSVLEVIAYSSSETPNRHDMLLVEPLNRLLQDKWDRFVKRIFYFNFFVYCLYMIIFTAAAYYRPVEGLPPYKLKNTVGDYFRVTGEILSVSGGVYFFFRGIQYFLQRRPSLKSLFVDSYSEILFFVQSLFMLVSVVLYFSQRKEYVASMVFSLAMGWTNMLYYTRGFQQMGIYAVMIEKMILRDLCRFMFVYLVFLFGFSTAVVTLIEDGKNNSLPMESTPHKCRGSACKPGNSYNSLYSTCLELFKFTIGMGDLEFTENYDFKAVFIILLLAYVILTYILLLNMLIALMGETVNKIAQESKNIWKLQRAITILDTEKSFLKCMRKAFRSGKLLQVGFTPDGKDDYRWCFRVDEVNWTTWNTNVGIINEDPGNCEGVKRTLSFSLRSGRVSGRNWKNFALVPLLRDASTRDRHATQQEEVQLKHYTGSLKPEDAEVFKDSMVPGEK
Cannabinoid receptor 2 (Homo sapiens), sequence (P34972 whole entry): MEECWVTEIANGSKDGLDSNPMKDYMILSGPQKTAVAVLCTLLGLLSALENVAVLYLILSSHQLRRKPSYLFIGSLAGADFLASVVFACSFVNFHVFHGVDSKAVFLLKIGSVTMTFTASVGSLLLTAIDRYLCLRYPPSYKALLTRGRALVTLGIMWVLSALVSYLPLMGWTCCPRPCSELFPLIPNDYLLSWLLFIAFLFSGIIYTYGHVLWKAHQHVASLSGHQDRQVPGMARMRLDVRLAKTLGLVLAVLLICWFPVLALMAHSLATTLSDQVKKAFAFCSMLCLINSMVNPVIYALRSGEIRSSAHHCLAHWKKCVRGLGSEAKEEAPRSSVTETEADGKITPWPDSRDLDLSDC

**Q.** For `CCCCCCCC/C=C\CCCCCCCC(=O)N[C@H](CO)C(C)C`, which Activity (Mus musculus [1]) is on record?
**A.** 6.4%

**Q.** What about the Activity (Mus musculus [2]) of the same compound?
**A.** -5%

**Q.** And the Activity (Mus musculus [3])?
**A.** -17.3%

**Q.** What about the Activity (Hypothalamus [4]) of the same compound?
**A.** 44.5%

**Q.** What about the Activity (Mus musculus [5]) of the same compound?
**A.** -7.5%

**Q.** And the Activity (Mus musculus [6])?
**A.** Active

**Q.** What about the Activity (Hypothalamus [7]) of the same compound?
**A.** -18%

**Q.** What about the Activity (Mus musculus [8]) of the same compound?
**A.** Active

**Q.** What about the Activity (Mus musculus [9]) of the same compound?
**A.** 0.7%

**Q.** What about the Activity (Hypothalamus [10]) of the same compound?
**A.** -20%

**Q.** What about the Activity (Mus musculus [11]) of the same compound?
**A.** 30%

**Q.** What about the Activity (Mus musculus [12]) of the same compound?
**A.** Non-toxic

**Q.** What about the Activity (Mus musculus [13]) of the same compound?
**A.** -5.98%

**Q.** And the Activity (Mus musculus [14])?
**A.** -3.1%

**Q.** And the Activity (Mus musculus [15])?
**A.** 4.6%

**Q.** What about the Activity (Mus musculus [16]) of the same compound?
**A.** -8.2%

**Q.** What about the inhibition [17] of the same compound?
**A.** 1%

**Q.** And the Activity (Mus musculus [18])?
**A.** Active

**Q.** What about the Activity (Mus musculus [19]) of the same compound?
**A.** 93.8%

**Q.** And the Activity (Mus musculus [20])?
**A.** Active

**Q.** And the Activity (Mus musculus [21])?
**A.** -2.2%

**Q.** What about the Activity (Mus musculus [22]) of the same compound?
**A.** -2.7%

**Q.** What about the Activity (Mus musculus [23]) of the same compound?
**A.** -6.4%

**Q.** And the Activity (Mus musculus [24])?
**A.** -7.31%

**Q.** And the Activity (Mus musculus [25])?
**A.** 126 IU/L

**Q.** What about the Activity (Mus musculus [26]) of the same compound?
**A.** -3.06%

**Q.** What about the Activity (Mus musculus [27]) of the same compound?
**A.** 22%

**Q.** What about the Activity (Mus musculus [28]) of the same compound?
**A.** -3.2%

**Q.** And the Activity (Mus musculus [29])?
**A.** -21.6%

**Q.** What about the Activity (Mus musculus [30]) of the same compound?
**A.** -5.49%

**Q.** What about the Activity (Mus musculus [31]) of the same compound?
**A.** -2.2%

**Q.** What about the inhibition [32] of the same compound?
**A.** 18%

**Q.** And the Activity (Mus musculus [33])?
**A.** Non-toxic

Reference: ChEMBL document CHEMBL2321853, “Novel acylethanolamide derivatives that modulate body weight through enhancement of hypothalamic pro-opiomelanocortin (POMC) and/or decreased neuropeptide Y (NPY)” (J Med Chem, 2013)
